From patent US6670363B1, “Azole compounds as therapeutic agents for fungal infections” (Ranbaxy Laboratories Limited, priority 2000, dated 2003)
Values after ≈ are worked out from the molar mass of the structure shown.

How the values were obtained:
Assay type in all cases: cell-based
[1] = test system: Histoplasma capsulatum
[2] = test system: A. fumigatus s 1008; test: In vitro MIC, NCCLS M38P broth method (RPMI 1640/MOPS pH7), Aspergillus fumigatus; conditions: A. fumigatus strain 1008
[3] = test system: Candida; test: In vitro MIC, NCCLS M27A, Candida species; design: MIC, Candida albicans 1.549 / MIC, Candida albicans Y-01-19 / MIC, C. krusei 766-1 / MIC, C. krusei Q. C / MIC, Candida tropicalis ATCC / MIC, C. glabrata 90030: unit not given beside the values; MIC, Candida albicans A 26 / MIC, C. parapsilosis Q. C.: unit not given here; conditions: for MIC, C. glabrata 90030: C. glabrata strain 90030; for MIC, C. krusei 766-1: C. krusei strain 766-1; for MIC, C. krusei Q. C: C. krusei strain Q. C; for MIC, C. parapsilosis Q. C.: C. parapsilosis strain Q. C.; for MIC, Candida albicans 1.549: Candida albicans strain 1.549; for MIC, Candida albicans A 26: Candida albicans strain A 26; for MIC, Candida albicans Y-01-19: Candida albicans strain Y-01-19
[4] = test system: Cryptococcus neoformans; test: In vitro MIC, NCCLS M27A, Cryptococcus neoformans; design: MIC, C. neoformans I: unit not given beside the values; MIC, C. neoformans M 106: unit not given here; conditions: for MIC, C. neoformans I: C. neoformans strain I; for MIC, C. neoformans M 106: C. neoformans strain M 106

| Compound | MIC, H. capsulatum [1] [µg/mL] | MIC, A. fumigatus 1008 [2] | MIC, C. glabrata 90030 [3] | MIC, C. krusei 766-1 [3] | MIC, C. krusei Q. C [3] | MIC, C. parapsilosis Q. C. [3] | MIC, Candida albicans 1.549 [3] | MIC, Candida albicans A 26 [3] | MIC, Candida albicans Y-01-19 [3] | MIC, Candida tropicalis ATCC [3] | MIC, C. neoformans I [4] | MIC, C. neoformans M 106 [4] |
| --- | --- | --- | --- | --- | --- | --- | --- | --- | --- | --- | --- | --- |
| C[C@@H](n1ncn(-c2ccc(N3CCN(c4cccc(C(F)(F)F)c4)CC3)cc2)c1=O)[C@](O)(Cn1cncn1)c1ccc(F)cc1F [Compound 9, 2-{[1R2R/1S2S]-2-(2,4-Difluorophenyl)-2-hydroxy-1-methyl-3-(1H-1,2,4-triazol-1-yl)propyl}-4-{4-[4-(3-trifluoromethylphenyl)-1-piperazinyl]phenyl}-3-(2H,4H)-1,2,4-triazolone] | 0.06 (≈ 0.0937 µM) | 0.50 | 0.25 | 0.50 | 0.12 | <0.03 | 0.25 | <0.03 | 0.25 | <0.03 | <0.03 | <0.03 |
| COc1ccc(F)cc1N1CCN(c2ccc(-n3c(C)nn([C@H](C)[C@](O)(Cn4cncn4)c4ccc(F)cc4F)c3=O)cc2)CC1 [Compound 27, 2-{[1R2R/1S2S]-2-(2,4-Difluorophenyl)-2-hydroxy-1-methyl-3-(1H-1,2,4-triazol-1-yl)propyl}-4-{4-[4-(2-methoxy-5-fluorophenyl)-1-piperazinyl]phenyl}-3-(2H,4H)-5-methyl-1,2,4-triazolone] | < 0.03 | >16 | 1.00 | 2.00 | 0.50 | <0.03 | 1.00 | <0.03 | 0.50 | <0.03 | <0.03 | <0.03 |
| Cc1nn([C@H](C)[C@@](O)(Cn2cncn2)c2ccc(F)cc2F)c(=O)n1-c1ccc(N2CCN(c3ccc(Cl)cc3Cl)CC2)cc1 [Compound 34, 2-{[1R2S/1S2R]-2-(2,4-Difluorophenyl)-2-hydroxy-1-methyl-3-(1H-1,2,4-triazol-1-yl)propyl}-4-{4-[4-(2,4-dichlorophenyl)-1-piperazinyl]phenyl}-3-(2H,4H)-5-methyl-1,2,4-triazolone] | 0.12 (≈ 0.183 µM) | – | 0.50 | 2.00 | 1.00 | 0.25 | 1.00 | <0.03 | 1.00 | <0.03 | 0.25 | <0.03 |
| Cc1nn([C@H](C)[C@](O)(Cn2cncn2)c2ccc(F)cc2F)c(=O)n1-c1ccc(N2CCN(c3ccc(Cl)cc3Cl)CC2)cc1 [Compound 33, 2-{[1R2R/1S2S]-2-(2,4-Difluorophenyl)-2-hydroxy-1-methyl-3-(1H-1,2,4-triazol-1-yl)propyl}-4-{4-[4-(2,4-dichlorophenyl)-1-piperazinyl]phenyl}-3-(2H,4H)-5-methyl-1,2,4-triazolone] | 0.12 (≈ 0.183 µM) | 0.50 | 0.25 | 0.25 | 0.06 | <0.03 | 0.13 | <0.03 | 0.13 | <0.03 | <0.03 | <0.03 |
| C[C@@H](n1ncn(-c2ccc(N3CCN(c4ccc(Cl)c(Cl)c4)CC3)cc2)c1=O)[C@@](O)(Cn1cncn1)c1ccc(F)cc1F [Compound 8, 2-{[1R2S/1S2R]-2-(2,4-Difluorophenyl)-2-hydroxy-1-methyl-3-(1H-1,2,4-triazol-1-yl)propyl}-4-{4-[4-(3,4-dichlorophenyl)-1-piperazinyl]phenyl}-3-(2H,4H)-1,2,4-triazolone] | 2 (≈ 3.12 µM) | >16 | >16 | >16 | >16 | 1.00 | >16 | <0.03 | >16 | >16 | 16.00 | 16.00 |
| Cc1ccc(N2CCN(c3ccc(-n4cnn([C@H](C)[C@@](O)(Cn5cncn5)c5ccc(F)cc5F)c4=O)cc3)CC2)cc1Cl [Compound 18, 2-{[1R2S/1S2R]-2-(2,4-Difluorophenyl)-2-hydroxy-1-methyl-3-(1H-1,2,4-triazol-1-yl)propyl}-4-{4-[4-(3-chloro-4-methylphenyl)-1-piperazinyl]phenyl}-3-(2H,4H)-1,2,4-triazolone] | 0.25 (≈ 0.403 µM) | >16 | 1.00 | >16 | 2.00 | 0.25 | 2.00 | <0.03 | 1.00 | <0.03 | 0.12 | 0.25 |
| Cc1ccc(N2CCN(c3ccc(-n4cnn([C@H](C)[C@](O)(Cn5cncn5)c5ccc(F)cc5F)c4=O)cc3)CC2)cc1Cl [Compound 17, 2-{[1R2R/1S2S]-2-(2,4-Difluorophenyl)-2-hydroxy-1-methyl-3-(1H-1,2,4-triazol-1-yl)propyl}-4-{4-[4-(3-chloro-4-methylphenyl)-1-piperazinyl]phenyl}-3-(2H,4H)-1,2,4-triazolone] | 0.25 (≈ 0.403 µM) | 0.25 | 0.50 | 0.50 | 0.50 | <0.03 | 0.25 | <0.03 | 0.25 | <0.03 | <0.03 | <0.03 |
| Cc1nn([C@H](C)[C@](O)(Cn2cncn2)c2ccc(F)cc2F)c(=O)n1-c1ccc(N2CCN(c3cc(Cl)cc(Cl)c3)CC2)cc1 [Compound 29, 2-{[1R2R/1S2S]-2-(2,4-Difluorophenyl)-2-hydroxy-1-methyl-3-(1H-1,2,4-triazol-1-yl)propyl}-4-{4-[4-(3,5-dichlorophenyl)-1-piperazinyl]phenyl}-3-(2H,4H)-5-methyl-1,2,4-triazolone] | 0.25 (≈ 0.381 µM) | 0.50 | 0.50 | 0.50 | 0.25 | <0.03 | 0.25 | <0.03 | 0.25 | <0.03 | <0.03 | <0.03 |
